Key:
Glucocorticoid = Glucocorticoid (Homo sapiens, UniProt P04150); experiment: Safety screen; format: binding
Procedure: (§1) Blood cell counts, kinase profiler, safety screen, bacterial cytotoxicity, Ames, micronucleus assays were performed by the company Eurofins (France).

[1] = molecular target: Cholecystokinin CCK2 (CCKB) (Homo sapiens, UniProt P32239); experiment: Safety screen; format: binding
Procedure: as §1

NEK6(h) = NEK6(h) (Homo sapiens, UniProt Q9HC98); experiment: Kinase Profiler; format: biochemical
Procedure: (§2) The kinase profiler was performed by the company Eurofins (Discovery, Panlab and Cerep).

MST3(h) = MST3(h) (Homo sapiens, UniProt Q9Y6E0); experiment: Kinase Profiler; format: biochemical
Procedure: as §2

[2] = test system: GABAA, Flunitrazepam, Central; experiment: Safety screen; format: binding, rat
Procedure: as §1

PEK(h) = PEK(h) (Homo sapiens, UniProt Q9NZJ5); experiment: Kinase Profiler; format: biochemical
Procedure: as §2

TRB2(h) = TRB2(h) (Homo sapiens, UniProt Q92519); experiment: Kinase Profiler; format: biochemical
Chain of TRB2(h) (Q92519 whole entry): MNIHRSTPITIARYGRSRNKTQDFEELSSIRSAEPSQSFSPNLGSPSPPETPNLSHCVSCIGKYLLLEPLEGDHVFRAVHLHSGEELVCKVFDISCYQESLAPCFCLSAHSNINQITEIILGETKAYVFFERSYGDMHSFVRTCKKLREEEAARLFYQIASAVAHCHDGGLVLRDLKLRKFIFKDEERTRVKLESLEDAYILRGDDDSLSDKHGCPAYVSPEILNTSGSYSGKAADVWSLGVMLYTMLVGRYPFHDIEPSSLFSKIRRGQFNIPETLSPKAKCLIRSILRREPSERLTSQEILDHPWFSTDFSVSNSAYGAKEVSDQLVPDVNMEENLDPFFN
Procedure: as §2

PKR(h) = PKR(h) (Homo sapiens, UniProt P19525); experiment: Kinase Profiler; format: biochemical
Procedure: as §2

PKCβI(h) = PKCβI(h) (Homo sapiens, UniProt P05771); experiment: Kinase Profiler; format: biochemical
Chain of PKCβI(h) (P05771 whole entry): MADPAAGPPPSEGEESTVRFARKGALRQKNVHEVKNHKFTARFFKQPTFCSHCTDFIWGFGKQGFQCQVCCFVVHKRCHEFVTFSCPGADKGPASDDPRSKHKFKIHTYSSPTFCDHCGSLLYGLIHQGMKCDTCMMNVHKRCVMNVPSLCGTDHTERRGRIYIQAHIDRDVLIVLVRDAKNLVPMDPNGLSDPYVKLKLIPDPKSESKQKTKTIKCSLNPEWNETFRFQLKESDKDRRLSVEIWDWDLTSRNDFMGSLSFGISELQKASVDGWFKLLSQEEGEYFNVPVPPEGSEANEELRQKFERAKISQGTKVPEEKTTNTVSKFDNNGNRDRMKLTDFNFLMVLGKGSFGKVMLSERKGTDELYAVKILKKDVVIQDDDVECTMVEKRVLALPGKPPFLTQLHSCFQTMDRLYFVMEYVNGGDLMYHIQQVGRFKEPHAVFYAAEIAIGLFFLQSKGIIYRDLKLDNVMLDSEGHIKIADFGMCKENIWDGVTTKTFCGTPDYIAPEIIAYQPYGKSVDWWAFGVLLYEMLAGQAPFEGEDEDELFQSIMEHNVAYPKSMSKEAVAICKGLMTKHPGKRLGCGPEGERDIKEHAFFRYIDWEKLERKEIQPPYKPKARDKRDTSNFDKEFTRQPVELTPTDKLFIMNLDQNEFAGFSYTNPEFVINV
Procedure: as §2

JNK2α2(h) = JNK2α2(h) (Homo sapiens, UniProt P45984); experiment: Kinase Profiler; format: biochemical
Procedure: as §2

ZIPK(h) = ZIPK(h) (Homo sapiens, UniProt O43293); experiment: Kinase Profiler; format: biochemical
Procedure: as §2

TrkB(h) = TrkB(h) (Homo sapiens, UniProt Q16620); experiment: Kinase Profiler; format: biochemical
Procedure: as §2

Abl (Q252H) (h) = Abl (Q252H) (h) (Homo sapiens, UniProt P00519, Q252H); experiment: Kinase Profiler; format: biochemical
Procedure: as §2

CDKL4(h) = CDKL4(h) (Homo sapiens, UniProt Q5MAI5); experiment: Kinase Profiler; format: biochemical
Chain of CDKL4(h) (Q5MAI5 whole entry): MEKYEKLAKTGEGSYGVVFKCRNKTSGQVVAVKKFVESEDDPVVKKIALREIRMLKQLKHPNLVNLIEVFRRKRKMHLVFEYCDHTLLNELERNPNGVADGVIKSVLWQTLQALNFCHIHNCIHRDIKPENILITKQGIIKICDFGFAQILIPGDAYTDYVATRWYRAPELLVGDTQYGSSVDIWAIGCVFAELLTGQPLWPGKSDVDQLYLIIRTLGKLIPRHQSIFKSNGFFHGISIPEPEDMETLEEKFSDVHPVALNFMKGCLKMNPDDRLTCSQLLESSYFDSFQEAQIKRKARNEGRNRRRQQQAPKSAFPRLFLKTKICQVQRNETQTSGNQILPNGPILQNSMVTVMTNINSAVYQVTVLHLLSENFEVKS
Procedure: as §2

PI3K (p110b/p85a)(m) = PI3K (p110b/p85a)(m) (Mus musculus, UniProt Q8BTI9); experiment: Kinase Profiler; format: biochemical
Procedure: (§3) Blood cell counts, kinase profiler, safety screen, bacterial cytotoxicity, Ames, micronucleus assays were performed by the company Eurofins (France). The kinase profiler was performed by the company Eurofins (Discovery, Panlab and Cerep).

SAPK3(h) = SAPK3(h) (Homo sapiens, UniProt P53778); experiment: Kinase Profiler; format: biochemical
Procedure: as §2

[3] = molecular target: Platelet Activating Factor (PAF) (Homo sapiens, UniProt P25105); experiment: Safety screen; format: binding
Procedure: as §3

MLK2(h) = MLK2(h) (Homo sapiens, UniProt Q02779); experiment: Kinase Profiler; format: biochemical
Procedure: as §3

RHOA = RHOA (Homo sapiens, UniProt P61586); experiment: Surface plasmon resonance; format: binding; design: purchased Cytoskeleton RC01; details: A41 0 to 25 μM
Chain of RHOA (P61586 whole entry): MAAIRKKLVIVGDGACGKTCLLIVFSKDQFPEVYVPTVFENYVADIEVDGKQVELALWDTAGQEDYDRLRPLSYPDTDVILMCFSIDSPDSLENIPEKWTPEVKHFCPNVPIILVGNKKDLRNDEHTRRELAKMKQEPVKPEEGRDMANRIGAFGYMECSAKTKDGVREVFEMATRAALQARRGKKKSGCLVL
Procedure: SPR immobilization was performed at 25°C. RAC1, RHOA and CDC42 purified proteins (respectively […] and CD01, Cytoskeleton) were diluted to 5 μg/mL in Na^+ acetate buffer (pH 5.0) and injected into sensor chip CM5 (GE Healthcare) in a Biacore T200 (GE Healthcare) that was activated with NHS/EDC buffer. Approximately 5,000 response units of the purified protein were immobilized on the biosensor chip. Biosensor chips were blocked by an injection of 1 mM ethanolamine (pH 8.5). SPR analysis was performed at 25°C in HBSEP running buffer (5% DMSO) with or without EDTA (20 mM). A41 compound was injected over the RAC1, RHOA or CDC42 functionalized surface in concentration range from 0 to 25μM. Association and dissociation phases were monitored during 60s and 300s, respectively.

PAK4(h) = PAK4(h) (Homo sapiens, UniProt O96013); experiment: Kinase Profiler; format: biochemical
Procedure: as §3

Endothelin ETA = Endothelin ETA (Homo sapiens, UniProt P25101); experiment: Safety screen; format: binding
Procedure: as §1

CDK18/cyclinY(h) = CDK18/cyclinY(h) (Homo sapiens, UniProt Q07002); experiment: Kinase Profiler; format: biochemical
Chain of CDK18/cyclinY(h) (Q07002 whole entry): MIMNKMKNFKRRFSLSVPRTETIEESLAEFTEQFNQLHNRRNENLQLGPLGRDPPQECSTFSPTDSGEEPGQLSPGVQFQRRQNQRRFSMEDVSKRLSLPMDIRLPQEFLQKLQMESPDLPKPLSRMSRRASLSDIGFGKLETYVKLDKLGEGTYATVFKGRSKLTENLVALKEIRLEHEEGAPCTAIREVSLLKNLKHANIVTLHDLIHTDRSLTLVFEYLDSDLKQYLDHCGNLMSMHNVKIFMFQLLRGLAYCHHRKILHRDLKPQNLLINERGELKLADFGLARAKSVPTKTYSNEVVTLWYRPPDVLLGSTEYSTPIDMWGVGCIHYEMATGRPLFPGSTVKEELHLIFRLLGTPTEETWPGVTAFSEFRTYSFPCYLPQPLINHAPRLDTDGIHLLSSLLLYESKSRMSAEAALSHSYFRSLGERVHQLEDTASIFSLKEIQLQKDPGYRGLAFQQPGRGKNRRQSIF
Chain of CDK18/cyclinY(h) (Q8ND76 whole entry partner): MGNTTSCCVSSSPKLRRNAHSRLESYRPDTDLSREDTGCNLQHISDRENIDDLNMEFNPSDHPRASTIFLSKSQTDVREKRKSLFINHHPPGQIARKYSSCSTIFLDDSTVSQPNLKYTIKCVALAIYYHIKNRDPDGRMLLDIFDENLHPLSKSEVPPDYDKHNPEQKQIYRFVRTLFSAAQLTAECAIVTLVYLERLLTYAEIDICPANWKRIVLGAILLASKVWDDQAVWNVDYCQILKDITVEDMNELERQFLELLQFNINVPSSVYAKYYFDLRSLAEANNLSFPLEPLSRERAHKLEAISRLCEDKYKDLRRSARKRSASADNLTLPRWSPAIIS
Procedure: as §2

IGF-1R(h) = IGF-1R(h) (Homo sapiens, UniProt P08069); experiment: Kinase Profiler; format: biochemical
Procedure: as §3

MLK4(h) = MLK4(h) (Homo sapiens, UniProt Q5TCX8); experiment: Kinase Profiler; format: biochemical
Procedure: as §3

[4] = molecular target: PI3K (p110a(H1047R)/p85a)(m) (Mus musculus, UniProt P42337, H1047R); experiment: Kinase Profiler; format: biochemical
Procedure: as §3

IKKε(h) = IKKε(h) (Homo sapiens, UniProt Q14164); experiment: Kinase Profiler; format: biochemical
Procedure: as §3

Tie2(Y897S)(h) = Tie2(Y897S)(h) (Homo sapiens, UniProt Q02763, Y897S); experiment: Kinase Profiler; format: biochemical
Chain of Tie2(Y897S)(h) (Q02763 23-1124 Y897S): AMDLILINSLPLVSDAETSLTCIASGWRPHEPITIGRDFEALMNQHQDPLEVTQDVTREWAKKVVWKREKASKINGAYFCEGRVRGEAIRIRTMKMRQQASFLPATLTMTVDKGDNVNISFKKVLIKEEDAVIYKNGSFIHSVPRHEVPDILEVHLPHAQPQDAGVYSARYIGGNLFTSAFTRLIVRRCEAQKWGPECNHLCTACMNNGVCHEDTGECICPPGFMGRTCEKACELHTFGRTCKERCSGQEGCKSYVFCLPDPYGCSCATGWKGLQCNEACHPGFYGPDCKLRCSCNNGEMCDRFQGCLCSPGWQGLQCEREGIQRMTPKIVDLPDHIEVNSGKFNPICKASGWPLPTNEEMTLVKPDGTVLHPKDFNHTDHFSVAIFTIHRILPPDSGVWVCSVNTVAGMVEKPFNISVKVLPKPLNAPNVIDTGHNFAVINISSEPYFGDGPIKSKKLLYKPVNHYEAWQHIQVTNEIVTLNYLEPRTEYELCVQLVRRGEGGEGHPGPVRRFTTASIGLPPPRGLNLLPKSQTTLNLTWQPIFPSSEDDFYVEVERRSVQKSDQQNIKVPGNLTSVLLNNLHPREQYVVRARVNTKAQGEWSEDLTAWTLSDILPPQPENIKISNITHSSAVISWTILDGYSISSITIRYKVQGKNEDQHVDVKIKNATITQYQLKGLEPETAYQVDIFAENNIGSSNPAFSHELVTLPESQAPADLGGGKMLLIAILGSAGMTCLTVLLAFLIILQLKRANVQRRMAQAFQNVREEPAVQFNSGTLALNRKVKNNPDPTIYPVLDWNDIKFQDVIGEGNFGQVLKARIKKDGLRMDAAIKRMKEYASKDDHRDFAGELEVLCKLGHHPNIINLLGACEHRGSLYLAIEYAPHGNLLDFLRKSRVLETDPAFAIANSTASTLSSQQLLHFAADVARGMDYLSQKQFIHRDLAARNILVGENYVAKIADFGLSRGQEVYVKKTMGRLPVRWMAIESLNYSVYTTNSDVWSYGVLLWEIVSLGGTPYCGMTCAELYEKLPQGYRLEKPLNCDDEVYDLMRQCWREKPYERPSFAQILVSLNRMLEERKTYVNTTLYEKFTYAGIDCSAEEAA
Procedure: as §2

Chemokine CXCR2 (IL-8RB) = Chemokine CXCR2 (IL-8RB) (Homo sapiens, UniProt P25025); experiment: Safety screen; format: binding
Procedure: as §1

MSK1(h) = MSK1(h) (Homo sapiens, UniProt O75582); experiment: Kinase Profiler; format: biochemical
Procedure: as §3

FGFR2(h) = FGFR2(h) (Homo sapiens, UniProt P21802); experiment: Kinase Profiler; format: biochemical
Procedure: as §2

DDR2(h) = DDR2(h) (Homo sapiens, UniProt Q16832); experiment: Kinase Profiler; format: biochemical
Procedure: as §3

PDGFRα(h) = PDGFRα(h) (Homo sapiens, UniProt P16234); experiment: Kinase Profiler; format: biochemical
Procedure: as §2

GABAB1A = GABAB1A (Homo sapiens, UniProt Q9UBS5); experiment: Safety screen; format: binding
Procedure: as §1

[5] = molecular target: Serotonin (5-Hydroxytryptamine) 5-HT3 (Homo sapiens, UniProt P46098); experiment: Safety screen; format: binding
Procedure: as §1

Pim-3(h) = Pim-3(h) (Homo sapiens, UniProt Q86V86); experiment: Kinase Profiler; format: biochemical
Procedure: as §3

ULK1(h) = ULK1(h) (Homo sapiens, UniProt O75385); experiment: Kinase Profiler; format: biochemical
Chain of ULK1(h) (O75385 whole entry): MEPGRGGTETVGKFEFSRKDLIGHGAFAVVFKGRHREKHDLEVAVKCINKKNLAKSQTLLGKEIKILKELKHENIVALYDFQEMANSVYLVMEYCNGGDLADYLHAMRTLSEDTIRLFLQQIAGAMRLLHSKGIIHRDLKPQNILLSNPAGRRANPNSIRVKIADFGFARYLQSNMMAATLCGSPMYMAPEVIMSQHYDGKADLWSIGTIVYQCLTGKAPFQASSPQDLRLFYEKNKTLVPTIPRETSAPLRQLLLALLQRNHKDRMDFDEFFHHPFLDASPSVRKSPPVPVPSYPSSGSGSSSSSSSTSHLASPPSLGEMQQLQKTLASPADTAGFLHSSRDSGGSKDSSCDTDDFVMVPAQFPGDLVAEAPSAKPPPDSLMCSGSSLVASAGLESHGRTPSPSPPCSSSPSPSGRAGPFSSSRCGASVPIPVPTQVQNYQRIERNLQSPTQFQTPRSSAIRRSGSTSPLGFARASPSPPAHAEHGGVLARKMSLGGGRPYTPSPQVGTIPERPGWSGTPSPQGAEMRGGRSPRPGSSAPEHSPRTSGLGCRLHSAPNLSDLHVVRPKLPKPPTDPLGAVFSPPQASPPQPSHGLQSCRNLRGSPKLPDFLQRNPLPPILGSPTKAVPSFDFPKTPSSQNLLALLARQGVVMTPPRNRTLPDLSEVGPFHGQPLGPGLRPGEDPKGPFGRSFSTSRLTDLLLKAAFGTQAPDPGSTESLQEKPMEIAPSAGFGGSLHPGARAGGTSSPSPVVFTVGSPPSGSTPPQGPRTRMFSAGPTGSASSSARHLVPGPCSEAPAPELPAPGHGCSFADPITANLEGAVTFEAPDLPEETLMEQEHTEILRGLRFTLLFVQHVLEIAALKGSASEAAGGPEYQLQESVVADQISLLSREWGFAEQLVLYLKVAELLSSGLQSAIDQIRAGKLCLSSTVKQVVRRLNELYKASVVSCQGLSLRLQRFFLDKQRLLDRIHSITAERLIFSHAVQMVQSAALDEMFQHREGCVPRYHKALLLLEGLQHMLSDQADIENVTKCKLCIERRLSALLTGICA
Procedure: as §3

Chain of MST3(h) (Q9Y6E0 whole entry): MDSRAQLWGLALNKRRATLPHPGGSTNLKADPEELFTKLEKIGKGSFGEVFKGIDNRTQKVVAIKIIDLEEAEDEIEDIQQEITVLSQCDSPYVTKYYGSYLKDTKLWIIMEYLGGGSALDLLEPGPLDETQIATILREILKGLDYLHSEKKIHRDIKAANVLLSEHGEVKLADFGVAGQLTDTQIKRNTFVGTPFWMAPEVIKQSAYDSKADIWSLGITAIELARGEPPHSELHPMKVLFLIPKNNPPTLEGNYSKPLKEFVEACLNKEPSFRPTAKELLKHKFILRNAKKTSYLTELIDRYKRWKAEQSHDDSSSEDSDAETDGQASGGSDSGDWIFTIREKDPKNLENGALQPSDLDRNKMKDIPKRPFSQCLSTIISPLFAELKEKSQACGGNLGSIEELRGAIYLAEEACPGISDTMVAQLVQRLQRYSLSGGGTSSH

`COc1ccc(OC)c(NS(=O)(=O)c2ccc(NC(=O)CCSc3ccc(C)cc3)cc2)c1` [Compound A41] was tested, and the “% inh.” value (Glucocorticoid) was 17%, the “% inh.” value [1] was 0% and the “Activity(%)” value (NEK6(h)) was 109%. For the same molecule, the “Activity(%)” value (MST3(h)) was 95%, the “% inh.” value [2] was 15% and the “Activity(%)” value (PEK(h)) was 102%. For the same molecule, the “Activity(%)” value (TRB2(h)) was 104%, the “Activity(%)” value (PKR(h)) was 101% and the “Activity(%)” value (PKCβI(h)) was 98%. For the same molecule, the “Activity(%)” value (JNK2α2(h)) was 101%, the “Activity(%)” value (ZIPK(h)) was 103% and the “Activity(%)” value (TrkB(h)) was 108%. For the same molecule, the “Activity(%)” value (Abl (Q252H) (h)) was 105%, the “Activity(%)” value (CDKL4(h)) was 91% and the “Activity(%)” value (PI3K (p110b/p85a)(m)) was 101%. For the same molecule, the “Activity(%)” value (SAPK3(h)) was 105%, the “% inh.” value [3] was 78% and the “Activity(%)” value (MLK2(h)) was 109%. The binding (RHOA) was “No binding was measured”, the “Activity(%)” value (PAK4(h)) was 106% and the “% inh.” value (Endothelin ETA) was -8%. The “Activity(%)” value (CDK18/cyclinY(h)) was 101%, the “Activity(%)” value (IGF-1R(h)) was 100% and the “Activity(%)” value (MLK4(h)) was 104%. For the same molecule, the “Activity(%)” value [4] was 100%, the “Activity(%)” value (IKKε(h)) was 106% and the “Activity(%)” value (Tie2(Y897S)(h)) was 109%. The “% inh.” value (Chemokine CXCR2 (IL-8RB)) was 1%, the “Activity(%)” value (MSK1(h)) was 117% and the “Activity(%)” value (FGFR2(h)) was 89%. The “Activity(%)” value (DDR2(h)) was 114%, the “Activity(%)” value (PDGFRα(h)) was 92% and the “% inh.” value (GABAB1A) was -6%. The “% inh.” value [5] was -2%, the “Activity(%)” value (Pim-3(h)) was 101% and the “Activity(%)” value (ULK1(h)) was 106%.

Reference: PMC12281424, “A Rac-specific competitive inhibitor of guanine nucleotide binding reduces metastasis in triple-negative breast cancer” (Cell Reports Medicine, 2025)
